Data: patent US8486939B2, “Pyrimidinyl and 1,3,5-triazinyl benzimidazoles and their use in cancer therapy” (Pathway Therapeutics Inc., priority 2009, dated 2013)

Legend:
p110α/p85 = p110α/p85 (Homo sapiens, UniProt P42336); assay: Inhibition of isolated enzyme (lipid kinase assay, [γ33P]ATP, TLC); format: biochemical; conditions: recombinant enzyme, 100 μM ATP, 1 hr room temperature, average of two experiments
Method: (§1) Compounds were evaluated for their ability to inhibit Class I PI 3-kinase enzymes p110δ/p85, p110α/p85, and p110β/p85. Reaction mixtures comprising 0.1 μg of a recombinant enzyme, 10 μg of L-α-phosphatidylinositol, and 2× Lipid Kinase Buffer (40 mM Tris-HCl, pH 7.4, 200 mM NaCl, 1 mM EDTA), which contains either DMSO only as a control or the test compound in DMSO (the final DMSO concentration is 1%), were activated by the addition of an ATP mix (5 mM MgCl2, 100 μM ATP, and 0.1 μL [γ^33P]ATP). Reactions were incubated at room temperature for 1 hr, and then stopped by the addition of 1M HCl. The lipids were then extracted using a two step procedure. Firstly, 200 μL of chloroform/methanol (1:1) was added, the biphasic reactions mixed and centrifuged briefly, and the inorganic phase was removed and discarded. Following this, 80 μL of methanol:HCl (1:1) was added and the same procedure followed. The organic phase (70 μL) was then transferred to a clean 1.6 mL tube and the reactions were dried using a Speedvac, with no heating, for […]. The reactions were spotted onto TLC plates (Merck Ltd) and developed for 1 hr in propanol-1:2 M acetic acid (13:7). The TLC plates were then dried at room temperature and quantified using a phosphorimager (StormImager, Amersham). Nine compound concentrations were used for each test compound to determine its IC50 value. Each experiment was performed twice and the average IC50 value is used herein.

p110β/p85 = p110β/p85 (Homo sapiens, UniProt P42338); assay: as above; format: biochemical; conditions: recombinant enzyme, 100 μM ATP, 1 hr room temperature, average of two experiments
Chain of p110β/p85 (P42338 whole entry, species assumed): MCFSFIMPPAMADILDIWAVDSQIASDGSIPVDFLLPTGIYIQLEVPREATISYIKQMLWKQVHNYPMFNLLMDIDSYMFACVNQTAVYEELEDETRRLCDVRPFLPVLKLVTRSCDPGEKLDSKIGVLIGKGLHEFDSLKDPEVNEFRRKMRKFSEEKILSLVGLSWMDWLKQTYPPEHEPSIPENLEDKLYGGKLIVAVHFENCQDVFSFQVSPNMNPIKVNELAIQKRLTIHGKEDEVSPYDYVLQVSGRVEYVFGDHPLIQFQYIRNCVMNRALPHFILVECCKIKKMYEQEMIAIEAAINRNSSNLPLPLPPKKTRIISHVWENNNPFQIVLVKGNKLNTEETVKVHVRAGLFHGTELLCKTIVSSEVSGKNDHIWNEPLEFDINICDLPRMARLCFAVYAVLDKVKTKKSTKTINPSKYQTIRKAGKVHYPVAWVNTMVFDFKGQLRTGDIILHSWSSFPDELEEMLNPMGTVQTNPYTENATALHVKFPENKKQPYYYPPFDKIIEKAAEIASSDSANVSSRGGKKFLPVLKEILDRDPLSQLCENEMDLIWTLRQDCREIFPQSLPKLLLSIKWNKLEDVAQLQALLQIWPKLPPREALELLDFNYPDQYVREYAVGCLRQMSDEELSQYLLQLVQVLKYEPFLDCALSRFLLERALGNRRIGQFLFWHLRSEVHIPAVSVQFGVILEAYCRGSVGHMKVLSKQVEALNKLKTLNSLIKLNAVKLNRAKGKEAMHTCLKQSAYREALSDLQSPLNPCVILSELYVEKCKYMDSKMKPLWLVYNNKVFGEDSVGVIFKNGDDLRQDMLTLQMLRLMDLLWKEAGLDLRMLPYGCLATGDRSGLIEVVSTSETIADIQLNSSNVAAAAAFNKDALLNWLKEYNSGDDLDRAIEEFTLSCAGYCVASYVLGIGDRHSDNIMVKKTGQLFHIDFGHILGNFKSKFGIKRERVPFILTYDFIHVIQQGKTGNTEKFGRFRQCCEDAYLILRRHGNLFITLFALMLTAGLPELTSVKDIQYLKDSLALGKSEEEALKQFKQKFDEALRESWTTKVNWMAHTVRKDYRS
Chain of p110β/p85 (P27986 whole entry partner, species assumed): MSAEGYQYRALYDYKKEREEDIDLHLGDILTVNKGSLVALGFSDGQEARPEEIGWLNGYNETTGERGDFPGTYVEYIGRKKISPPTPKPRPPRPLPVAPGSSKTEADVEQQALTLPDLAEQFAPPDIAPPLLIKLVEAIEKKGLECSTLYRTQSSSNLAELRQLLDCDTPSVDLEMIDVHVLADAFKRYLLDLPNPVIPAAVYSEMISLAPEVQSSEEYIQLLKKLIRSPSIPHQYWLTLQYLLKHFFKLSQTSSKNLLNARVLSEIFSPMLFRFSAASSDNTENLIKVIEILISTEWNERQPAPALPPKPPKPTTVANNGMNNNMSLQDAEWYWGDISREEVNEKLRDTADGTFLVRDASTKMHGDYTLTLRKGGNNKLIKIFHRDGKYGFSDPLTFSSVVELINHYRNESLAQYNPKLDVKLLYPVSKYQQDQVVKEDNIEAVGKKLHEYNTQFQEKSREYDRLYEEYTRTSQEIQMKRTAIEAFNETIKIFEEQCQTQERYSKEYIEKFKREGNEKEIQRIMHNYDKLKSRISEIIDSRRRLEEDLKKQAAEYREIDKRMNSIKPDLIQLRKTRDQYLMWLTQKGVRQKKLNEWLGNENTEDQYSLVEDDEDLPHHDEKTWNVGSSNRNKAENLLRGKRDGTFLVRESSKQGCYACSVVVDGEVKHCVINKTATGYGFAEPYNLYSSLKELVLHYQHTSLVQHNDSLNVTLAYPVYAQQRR
Method: as §1

p110δ/p85 = p110δ/p85 (Homo sapiens, UniProt O00329); assay: as above; format: biochemical; conditions: recombinant enzyme, 100 μM ATP, 1 hr room temperature, average of two experiments
Chain of p110δ/p85 (O00329 whole entry, species assumed): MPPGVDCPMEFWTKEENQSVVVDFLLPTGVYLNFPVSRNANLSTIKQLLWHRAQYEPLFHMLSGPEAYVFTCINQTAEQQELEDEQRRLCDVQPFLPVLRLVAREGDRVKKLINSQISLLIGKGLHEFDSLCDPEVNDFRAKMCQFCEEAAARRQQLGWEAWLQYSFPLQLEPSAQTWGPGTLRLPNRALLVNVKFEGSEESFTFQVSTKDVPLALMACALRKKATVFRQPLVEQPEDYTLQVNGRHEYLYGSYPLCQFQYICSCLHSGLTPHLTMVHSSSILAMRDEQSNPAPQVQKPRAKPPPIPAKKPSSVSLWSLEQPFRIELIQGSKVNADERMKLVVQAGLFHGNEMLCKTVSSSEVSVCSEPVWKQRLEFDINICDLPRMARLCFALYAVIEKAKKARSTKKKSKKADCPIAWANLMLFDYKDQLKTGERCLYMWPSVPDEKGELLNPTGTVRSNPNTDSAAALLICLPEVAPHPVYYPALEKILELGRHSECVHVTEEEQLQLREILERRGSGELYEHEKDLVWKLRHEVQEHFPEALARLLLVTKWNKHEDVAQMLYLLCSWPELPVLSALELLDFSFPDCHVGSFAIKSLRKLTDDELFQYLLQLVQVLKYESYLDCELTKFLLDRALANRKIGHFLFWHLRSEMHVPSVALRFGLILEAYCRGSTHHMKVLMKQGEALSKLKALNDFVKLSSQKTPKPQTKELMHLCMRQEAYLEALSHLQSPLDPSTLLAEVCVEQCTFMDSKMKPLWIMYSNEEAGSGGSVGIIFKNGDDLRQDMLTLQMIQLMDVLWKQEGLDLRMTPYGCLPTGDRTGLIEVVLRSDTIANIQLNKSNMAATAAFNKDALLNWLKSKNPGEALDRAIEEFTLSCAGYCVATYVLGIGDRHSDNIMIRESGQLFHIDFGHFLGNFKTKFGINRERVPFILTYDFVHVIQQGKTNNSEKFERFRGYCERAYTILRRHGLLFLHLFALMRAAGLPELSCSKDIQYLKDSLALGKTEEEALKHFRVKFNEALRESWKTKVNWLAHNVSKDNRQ
Chain of p110δ/p85 (P27986 whole entry partner, species assumed): as the sequence (P27986 whole entry partner, species assumed) above
Method: as §1

NZB5 = assay: Cellular growth inhibition (3H-thymidine incorporation); format: cell-based; conditions: Homo sapiens, five days incubation, 3H-thymidine over the last 6 hrs, read-out: Cell IC50* NZB5
Method: (§2) The compounds were evaluated against two early passage human cell lines NZB5 and NZOV9 (Marshall et al., Oncol. Res. 2004, 14, 297). The cells were grown in ITS medium (α-modified minimal essential medium supplemented insulin, transferrin, selenite, and 5% fetal bovine serum) and grown on 96-well tissue culture plates under an atmosphere of 5% O2, 5% CO2, and 90% N2. Individual wells contained 500-1,000 cells (depending on the growth rate) in a volume of 150 μL. Compounds were added at 10-fold concentration steps to a maximum of 20 μM and plates were incubated for five days, with ^3H-thymidine being added over the last 6 hrs. Cells were harvested and incorporated radioactivity measured. Duplicate samples were analyzed for each compound dose with multiple control samples. Data were fitted by a least-squares method to an exponential of the form y=y0+ae^−bx, where y is the radioactivity (corrected for background and normalized to 100% of the control), x is the […], and y0, a, and b are variables, and the IC50 value defined as the compound concentration reducing ^3H-thymidine levels by 50%.

NZOV9 = assay: as above; format: cell-based; conditions: Homo sapiens, five days incubation, 3H-thymidine over the last 6 hrs, read-out: Cell IC50* NZOV9
Method: as §2

Chain of p110α/p85 (P42336 whole entry): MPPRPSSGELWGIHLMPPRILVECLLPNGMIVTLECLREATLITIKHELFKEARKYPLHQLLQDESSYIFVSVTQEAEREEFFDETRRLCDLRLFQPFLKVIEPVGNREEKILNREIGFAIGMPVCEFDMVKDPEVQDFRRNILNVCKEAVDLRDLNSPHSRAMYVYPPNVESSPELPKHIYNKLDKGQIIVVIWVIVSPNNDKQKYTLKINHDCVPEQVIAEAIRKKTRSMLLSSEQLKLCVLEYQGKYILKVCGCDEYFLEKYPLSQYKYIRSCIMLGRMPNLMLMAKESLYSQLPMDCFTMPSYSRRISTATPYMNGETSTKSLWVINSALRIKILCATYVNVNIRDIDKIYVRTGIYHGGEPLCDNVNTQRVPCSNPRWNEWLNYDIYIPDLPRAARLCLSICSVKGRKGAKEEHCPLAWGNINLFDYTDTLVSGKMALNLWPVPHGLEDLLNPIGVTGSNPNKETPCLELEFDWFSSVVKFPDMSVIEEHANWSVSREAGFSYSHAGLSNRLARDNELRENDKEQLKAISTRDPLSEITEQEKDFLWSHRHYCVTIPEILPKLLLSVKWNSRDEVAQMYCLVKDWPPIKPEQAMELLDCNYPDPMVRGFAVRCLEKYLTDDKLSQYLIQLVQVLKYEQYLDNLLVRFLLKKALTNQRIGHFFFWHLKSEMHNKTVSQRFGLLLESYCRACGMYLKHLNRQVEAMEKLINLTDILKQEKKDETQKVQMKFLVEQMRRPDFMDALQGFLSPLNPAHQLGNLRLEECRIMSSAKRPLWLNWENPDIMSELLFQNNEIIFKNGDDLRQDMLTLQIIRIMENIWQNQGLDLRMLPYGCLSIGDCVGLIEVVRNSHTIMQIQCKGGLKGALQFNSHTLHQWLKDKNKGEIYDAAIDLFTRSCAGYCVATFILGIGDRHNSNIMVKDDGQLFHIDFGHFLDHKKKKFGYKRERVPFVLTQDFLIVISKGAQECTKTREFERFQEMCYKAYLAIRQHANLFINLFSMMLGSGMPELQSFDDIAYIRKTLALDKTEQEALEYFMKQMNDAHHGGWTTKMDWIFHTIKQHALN
Chain of p110α/p85 (P27986 whole entry partner): as the sequence (P27986 whole entry partner, species assumed) above

IC50 (p110α/p85) [nM] | IC50 (p110β/p85) [nM] | IC50 (p110δ/p85) [nM] | melting point [°C] | SMILES | IC50 (NZB5) [nM] | IC50 (NZOV9) [nM]
< 100 | – | < 100 | 208 to 210 | COc1cccc2c1nc(C(F)F)n2-c1nc(-c2cccnc2)cc(N2CCOCC2)n1 [Example 52, 2-(difluoromethyl)-4-methoxy-1-[4-(4-morpholinyl)-6-(3-pyridinyl)-2-pyrimidinyl]-1H-benzimidazole] | – | –
100 to 1000 | – | 100 to 1000 | 209 to 211 | FC(F)c1nc2ccccc2n1-c1nc(-c2cncnc2)cc(N2CCOCC2)n1 [Example 55, 2-[2-(difluoromethyl)-1H-benzimidazol-1-yl]-6-(4-morpholinyl)-4,5′-bipyrimidine] | – | –
< 100 | – | 100 to 1000 | 222 to 224 | COc1cccc2c1nc(C(F)F)n2-c1nc(-c2cncnc2)cc(N2CCOCC2)n1 [Example 56, 2-[2-(difluoromethyl)-4-methoxy-1H-benzimidazol-1-yl]-6-(4-morpholinyl)-4,5′-bipyrimidine] | – | –
< 100 | – | 100 to 1000 | 238 to 241 | COc1ncc(-c2cc(N3CCOCC3)nc(-n3c(C(F)F)nc4c(OC)cccc43)n2)cn1 [Example 57, 2-[2-(difluoromethyl)-4-methoxy-1H-benzimidazol-1-yl]-6-(4-morpholinyl)-2′-methoxy-4,5′-bipyrimidine] | – | –
< 100 | – | < 100 | 248 to 251 | COc1cccc2c1nc(C(F)F)n2-c1nc(N2CCOCC2)c2ncn(-c3cncnc3)c2n1 [Example 60, 2-[2-(difluoromethyl)-4-methoxy-1H-benzimidazol-1-yl]-6-(4-morpholinyl)-9-(5-pyrimidinyl)-9H-purine] | – | –
< 100 | – | < 100 | 274 to 277 | COc1cccc2c1nc(C(F)F)n2-c1nc(N2CCOCC2)nc(-n2cccn2)n1 [Example 63, 2-(Difluoromethyl)-4-methoxy-1-[4-(4-morpholinyl)-6-(1H-pyrazol-1-yl)-1,3,5-triazin-2-yl]-1H-benzimidazole] | – | –

The next lines start with the compound.

SMILES | IC50 (p110α/p85) [nM] | IC50 (p110β/p85) [nM] | IC50 (p110δ/p85) [nM] | melting point [°C] | IC50 (NZB5) [nM] | IC50 (NZOV9) [nM]
FC(F)c1nc2ccccc2n1-c1nc(Nc2cccnc2)nc(N2CCOCC2)n1 [Example 1, 4-[2-(difluoromethyl)-1H-benzimidazol-1-yl]-6-(4-morpholinyl)-N-(3-pyridinyl)-1,3,5-triazin-2-amine] | < 100 | < 100 | < 100 | 228 to 230 | 100 to 1000 | 100 to 1000
COc1cccc2c1nc(C(F)F)n2-c1nc(Nc2cccnc2)nc(N2CCOCC2)n1 [Example 2, 4-[2-(difluoromethyl)-4-methoxy-1H-benzimidazol-1-yl]-6-(4-morpholinyl)-N-(3-pyridinyl)-1,3,5-triazin-2-amine] | < 100 | 100 to 1000 | < 100 | 221 to 223 | < 100 | < 100
CN(Cc1ccccc1)c1nc(N2CCOCC2)nc(-n2c(C(F)F)nc3ccccc32)n1 [Example 9, N-benzyl-4-[2-(difluoromethyl)-1H-benzimidazol-1-yl]-N-methyl-6-(4-morpholinyl)-1,3,5-triazin-2-amine] | 1000 to 10000 | 100 to 1000 | < 100 | 147 to 150 | – | 100 to 1000
FC(F)c1nc2ccccc2n1-c1nc(NCc2ccncc2)nc(N2CCOCC2)n1 [Example 15, 4-[2-(difluoromethyl)-1H-benzimidazol-1-yl]-6-(4-morpholinyl)-N-(4-pyridinylmethyl)-1,3,5-triazin-2-amine] | 100 to 1000 | – | – | 188 to 190 | 100 to 1000 | 100 to 1000
FC(F)c1nc2ccccc2n1-c1nc(Nc2ccccn2)nc(N2CCOCC2)n1 [Example 16, 4-[2-(difluoromethyl)-1H-benzimidazol-1-yl]-6-(4-morpholinyl)-N-(2-pyridinyl)-1,3,5-triazin-2-amine] | < 100 | – | < 100 | 230 to 232 | 100 to 1000 | 100 to 1000
FC(F)c1nc2ccccc2n1-c1nc(Nc2cnc3ccccc3c2)nc(N2CCOCC2)n1 [Example 18, N-[4-[2-(difluoromethyl)-1H-benzimidazol-1-yl]-6-(4-morpholinyl)-1,3,5-triazin-2-yl]-3-quinolinamine] | 100 to 1000 | – | 100 to 1000 | 270 to 273 | 100 to 1000 | 100 to 1000
FC(F)c1nc2ccccc2n1-c1nc(Nc2ncccn2)nc(N2CCOCC2)n1 [Example 19, 4-[2-(difluoromethyl)-1H-benzimidazol-1-yl]-6-(4-morpholinyl)-N-(2-pyrimidinyl)-1,3,5-triazin-2-amine] | 100 to 1000 | – | – | 261 to 263 | 100 to 1000 | 100 to 1000
FC(F)c1nc2ccccc2n1-c1nc(Nc2ccncn2)nc(N2CCOCC2)n1 [Example 20, 4-[2-(difluoromethyl)-1H-benzimidazol-1-yl]-6-(4-morpholinyl)-N-(4-pyrimidinyl)-1,3,5-triazin-2-amine] | < 100 | – | < 100 | 233 to 235 | 100 to 1000 | 100 to 1000
FC(F)c1nc2ccccc2n1-c1nc(Nc2cncnc2)nc(N2CCOCC2)n1 [Example 21, 4-[2-(difluoromethyl)-1H-benzimidazol-1-yl]-6-(4-morpholinyl)-N-(5-pyrimidinyl)-1,3,5-triazin-2-amine] | < 100 | – | < 100 | 290 to 292 | 100 to 1000 | 100 to 1000
FC(F)c1nc2ccccc2n1-c1nc(Nc2cnccn2)nc(N2CCOCC2)n1 [Example 22, 4-[2-(difluoromethyl)-1H-benzimidazol-1-yl]-6-(4-morpholinyl)-N-(2-pyrazinyl)-1,3,5-triazin-2-amine] | < 100 | – | < 100 | 271 to 274 | 100 to 1000 | 100 to 1000
FC(F)c1nc2ccccc2n1-c1nc(Oc2cccnc2)nc(N2CCOCC2)n1 [Example 24, 2-(difluoromethyl)-1-[4-(4-morpholinyl)-6-(3-pyridinyloxy)-1,3,5-triazin-2-yl]-1H-benzimidazole] | 100 to 1000 | – | – | 229 to 231 | 1000 to 10000 | 1000 to 10000
FC(F)c1nc2ccccc2n1-c1nc(Nc2cncnc2)nc(N2CCOCC2)n1 [Example 35, 4-[2-(difluoromethyl)-1H-benzimidazol-1-yl]-6-(4-morpholinyl)-N-(5-pyrimidinyl)-1,3,5-triazin-2-amine] | – | 100 to 1000 | – | – | – | –
COc1ncc(Nc2nc(N3CCOCC3)nc(-n3c(C(F)F)nc4c(OC)cccc43)n2)cn1 [Example 40, 4-[2-(difluoromethyl)-4-methoxy-1H-benzimidazol-1-yl]-N-(2-methoxy-5-pyrimidinyl)-6-(4-morpholinyl)-1,3,5-triazin-2-amine] | < 100 | 100 to 1000 | < 100 | – | 100 to 1000 | 100 to 1000
FC(F)c1nc2ccccc2n1-c1nc(-c2cccnc2)cc(N2CCOCC2)n1 [Example 51, 2-(difluoromethyl)-1-[4-(4-morpholinyl)-6-(3-pyridinyl)-2-pyrimidinyl]-1H-benzimidazole] | 100 to 1000 | – | 100 to 1000 | 172 to 179 | – | –
